Test results reported in patent US20220241223A1, “USE OF DISULFIRAM OR ITS DERIVATIVES FOR THE TREATMENT OF MITOCHONDRIAL DISEASES OR DYSFUNCTION” (Universite D'angers, priority 2019, published 2022).

Tested on: SHY1 Mutation G137R (shy1) yeast strain
Assay: Halo test of growth on respiratory medium
Format: cell-based, Saccharomyces cerevisiae
Conditions: FIG. 1B; shy1 mutant strain; 10 and 30 nmoles on filter
Description: Each of the various Saccharomyces cerevisiae yeast strains used in examples 1 to 3 contain different specific mutations modeling human mutations resulting in mitochondrial diseases. At different extents, all these yeast strains present growth defect when grown on respiratory medium such as ethanol or glycerol at 28° C. or 36° C. (depending on the strain). […]
More precisely, 200 μL of the various yeast mutant strain grown in liquid YPD rich fermentable medium (1% Yeast Extract, 0.5% Bacto Peptone, 2% Glucose) at 0.4 OD600 were spread on agar-based solid respiratory medium: either YPG (1% Yeast Extract, 0.5% Bacto Peptone, 2% glycerol) or YPE (1% Yeast Extract, 0.5% Bacto Peptone, 2% ethanol). Small sterile filters were then placed on the agar surface and increasing concentrations of DSF were added to the filters at the indicated quantities. […]

CCN(CC)C(=S)S.[Na+] [DEDTC, Sodium diethyldithiocarbamate]
effect on growth defect on non-fermentable (respiratory) medium: similarly suppresses the growth defect
